Laboratory results as given in patent US9695133B2, “Quinazolinone-based oncogenic-RAS-selective lethal compounds and their use” (THE TRUSTEES OF COLUMBIA UNIVERSITY IN THE CITY OF NEW YORK, priority 2012, dated 2017).

Test system: HT-1080 cells
Test: Metabolite profiling (LC-MS/MS) upon erastin treatment
Assay type: cell-based, human
Details: 5 μg/mL erastin 5 h
Procedure: 2 million HT-1080 cells were seeded in 10 cm culture dishes. […] 4 mL of cold 80% methanol was added to the cell monolayer to extract polar metabolites using a cell scraper. The cell lysate/methanol mixture was transferred to a 15 mL tube and centrifuged at 2,000×g at 4° C. for 10 minutes to pellet debris and proteins. The supernatant was transferred to a new tube and stored at −80° C. for liquid chromatography-mass spectrometry/mass spectrometry (LC-MS/MS) analysis. For lipid extract preparation, 3 mL of cold 100% isopropanol was added to the cell monolayer to scrape out cells. The resulting cell lysate/isopropanol mixture was transferred to a new 15 mL tube and centrifuged at 2,000×g at 4° C. for 10 minutes. The cleared supernatant was transferred to a new tube and stored at −20° C. for LC-MS/MS analysis.
The metabolite extract was subjected to LC-MS/MS analysis to determine the quantity of each metabolite in each sample.

Compound: CCOc1ccccc1-n1c(C(C)N2CCN(C(=O)COc3ccc(Cl)cc3)CC2)nc2ccccc2c1=O (stereo not drawn) [erastin]
- 2-aminodipate Erastin/DMSO: 0.6644
- 2-aminodipate log2 (Erastin/DMSO): −0.59
- 2′-deoxyadenosine Erastin/DMSO: 0.6549
- 2′-deoxyadenosine log2 (Erastin/DMSO): −0.6107
- 2′-deoxycytidine Erastin/DMSO: 1.737
- 2′-deoxycytidine log2 (Erastin/DMSO): 0.7968
- 4-hydroxybenzoate Erastin/DMSO: 0.9815
- 4-hydroxybenzoate log2 (Erastin/DMSO): −0.02693
- 4-pyridoxate Erastin/DMSO: 1
- 4-pyridoxate log2 (Erastin/DMSO): 0.0001853
- 5-HIAA (first entry) Erastin/DMSO: 0.7283
- 5-HIAA (first entry) log2 (Erastin/DMSO): −0.4574
- 5-HIAA (second entry) Erastin/DMSO: 1.231
- 5-HIAA (second entry) log2 (Erastin/DMSO): 0.2997
- 5-hydroxytryptophan Erastin/DMSO: 0.8725
- 5-hydroxytryptophan log2 (Erastin/DMSO): −0.1967
- ADMA Erastin/DMSO: 0.8585
- ADMA log2 (Erastin/DMSO): −0.2201
- ADMA/SDMA Erastin/DMSO: 0.8985
- ADMA/SDMA log2 (Erastin/DMSO): −0.1543
- ADP Erastin/DMSO: 0.9616
- ADP log2 (Erastin/DMSO): −0.05643
- AMP Erastin/DMSO: 1.071
- AMP log2 (Erastin/DMSO): 0.09933
- Anthranilic acid Erastin/DMSO: 1.242
- Anthranilic acid log2 (Erastin/DMSO): 0.3128
- C14:0 CE Erastin/DMSO: 0.7897
- C14:0 CE log2 (Erastin/DMSO): −0.3407
- C14:0 LPC Erastin/DMSO: 3.625
- C14:0 LPC log2 (Erastin/DMSO): 1.858
- C14:0 SM Erastin/DMSO: 1.062
- C14:0 SM log2 (Erastin/DMSO): 0.08617
- C16:0 CE Erastin/DMSO: 0.9643
- C16:0 CE log2 (Erastin/DMSO): −0.05248
- C16:0 LPC Erastin/DMSO: 3.818
- C16:0 LPC log2 (Erastin/DMSO): 1.933
- C16:0 SM Erastin/DMSO: 1.03
- C16:0 SM log2 (Erastin/DMSO): 0.04281
- C16:1 CE Erastin/DMSO: 0.9321
- C16:1 CE log2 (Erastin/DMSO): −0.1015
- C16:1 LPC Erastin/DMSO: 5.386
- C16:1 LPC log2 (Erastin/DMSO): 2.429
- C16:1 SM Erastin/DMSO: 0.9808
- C16:1 SM log2 (Erastin/DMSO): −0.02798
- C18:0 CE Erastin/DMSO: 1.01
- C18:0 CE log2 (Erastin/DMSO): 0.01367
- C18:0 LPC Erastin/DMSO: 3.335
- C18:0 LPC log2 (Erastin/DMSO): 1.738
- C18:0 SM Erastin/DMSO: 1.018
- C18:0 SM log2 (Erastin/DMSO): 0.02559
- C18:1 CE Erastin/DMSO: 0.9198
- C18:1 CE log2 (Erastin/DMSO): −0.1206
- C18:1 LPC Erastin/DMSO: 3.744
- C18:1 LPC log2 (Erastin/DMSO): 1.904
- C18:1 SM Erastin/DMSO: 0.925
- C18:1 SM log2 (Erastin/DMSO): −0.1125
- C18:2 CE Erastin/DMSO: 0.9483
- C18:2 CE log2 (Erastin/DMSO): −0.07651
- C18:3 CE Erastin/DMSO: 0.9277
- C18:3 CE log2 (Erastin/DMSO): −0.1083
- C20:3 CE Erastin/DMSO: 0.7864
- C20:3 CE log2 (Erastin/DMSO): −0.3467
- C20:4 CE Erastin/DMSO: 0.9141
- C20:4 CE log2 (Erastin/DMSO): −0.1297
- C20:4 LPC Erastin/DMSO: 8.518
- C20:4 LPC log2 (Erastin/DMSO): 3.091
- C20:5 CE Erastin/DMSO: 0.8407
- C20:5 CE log2 (Erastin/DMSO): −0.2504
- C22:0 SM Erastin/DMSO: 0.96
- C22:0 SM log2 (Erastin/DMSO): −0.0589
- C22:1 SM Erastin/DMSO: 0.8374
- C22:1 SM log2 (Erastin/DMSO): −0.256
- C22:6 CE Erastin/DMSO: 0.7847
- C22:6 CE log2 (Erastin/DMSO): −0.3498
- C22:6 LPC Erastin/DMSO: 8.456
- C22:6 LPC log2 (Erastin/DMSO): 3.08
- C24:0 SM Erastin/DMSO: 0.9621
- C24:0 SM log2 (Erastin/DMSO): −0.05567
- C24:1 SM Erastin/DMSO: 0.8933
- C24:1 SM log2 (Erastin/DMSO): −0.1627
- C30:0 PC Erastin/DMSO: 0.8954
- C30:0 PC log2 (Erastin/DMSO): −0.1594
- C30:1 PC Erastin/DMSO: 1.014
- C30:1 PC log2 (Erastin/DMSO): 0.01988
- C30:2 PC Erastin/DMSO: 0.9467
- C30:2 PC log2 (Erastin/DMSO): −0.07901
- C32:0 PC Erastin/DMSO: 0.7948
- C32:0 PC log2 (Erastin/DMSO): −0.3314
- C32:0 PE Erastin/DMSO: 0.9821
- C32:0 PE log2 (Erastin/DMSO): −0.0261
- C32:1 DAG Erastin/DMSO: 1.055
- C32:1 DAG log2 (Erastin/DMSO): 0.07658
- C32:1 PC Erastin/DMSO: 0.9998
- C32:1 PC log2 (Erastin/DMSO): −0.0003379
- C32:1 PE Erastin/DMSO: 1.024
- C32:1 PE log2 (Erastin/DMSO): 0.03411
- C32:1 PI Erastin/DMSO: 1.261
- C32:1 PI log2 (Erastin/DMSO): 0.3346
- C32:2 PC Erastin/DMSO: 1.218
- C32:2 PC log2 (Erastin/DMSO): 0.2847
- C32:2 PE Erastin/DMSO: 1.018
- C32:2 PE log2 (Erastin/DMSO): 0.02554
- C34:0 PC Erastin/DMSO: 0.7975
- C34:0 PC log2 (Erastin/DMSO): −0.3264
- C34:0 PE Erastin/DMSO: 0.9533
- C34:0 PE log2 (Erastin/DMSO): −0.06907
- C34:1 DAG Erastin/DMSO: 0.8823
- C34:1 DAG log2 (Erastin/DMSO): −0.1807
- C34:1 PC Erastin/DMSO: 0.8993
- C34:1 PC log2 (Erastin/DMSO): −0.1531
- C34:1 PE Erastin/DMSO: 1.04
- C34:1 PE log2 (Erastin/DMSO): 0.05679
- C34:1 PI Erastin/DMSO: 1.173
- C34:1 PI log2 (Erastin/DMSO): 0.2306
- C34:2 DAG Erastin/DMSO: 1.089
- C34:2 DAG log2 (Erastin/DMSO): 0.1227
- C34:2 PC Erastin/DMSO: 1.049
- C34:2 PC log2 (Erastin/DMSO): 0.06833
- C34:2 PE Erastin/DMSO: 0.982
- C34:2 PE log2 (Erastin/DMSO): −0.02619
- C34:2 PI Erastin/DMSO: 1.286
- C34:2 PI log2 (Erastin/DMSO): 0.3633
- C34:3 PC Erastin/DMSO: 1.134
- C34:3 PC log2 (Erastin/DMSO): 0.1814
- C34:4 PC Erastin/DMSO: 1.086
- C34:4 PC log2 (Erastin/DMSO): 0.119
- C36:0 PC Erastin/DMSO: 0.6501
- C36:0 PC log2 (Erastin/DMSO): −0.6212
- C36:0 PE Erastin/DMSO: 0.9538
- C36:0 PE log2 (Erastin/DMSO): −0.06821
- C36:0 PI Erastin/DMSO: 1.006
- C36:0 PI log2 (Erastin/DMSO): 0.009131
